From patent US8394398B2 (Abbott Laboratories, priority 1997, dated 2013)
Read-outs that look alike come from different tables or passages of the source.

What was measured:
[1] = Phase 1 multiple escalating dose study, QD intravenous infusion for 14 days, safety and pharmacokinetics; format: in vivo, human; details: for AUC(0-inf) / Cmax / clearance / Vd / half-life / AUC: human, whole blood; for AUC: Day 14, blood
Protocol: The present study was designed to evaluate the pharmacokinetics of zotarolimus following multiple dosing and to assess its safety while maximizing systemic exposure of healthy subjects. […] The study investigated pharmacokinetics and safety of zotarolimus in a Phase 1, multiple dose-escalation study following multiple intravenous infusions of 200, 400 and 800 μg doses, every day for fourteen consecutive days in healthy subjects.
Phase 1, multiple-escalating dose, double-blind, placebo-controlled, randomized study. Seventy-two subjects equally divided in 3 once-daily (QD) regimens (200, 400 or 800 μg QD with 16 active and 8 placebo per regimen) were administered a 60-minute QD IV infusion of zotarolimus for 14 consecutive days. Blood samples were collected over 24 hours following the first dose, before dosing on days 10, 11, 12, 13, and for 168 hours following Day 14 dose. Urine samples were collected over 24 hours on days 1, 14, 16, 18 and 20. Blood and urine zotarolimus concentrations were determined using a validated LC/MS/MS method. Pharmacokinetic parameters were determined by compartmental analysis. All Day-AUC0-∞ (area under blood concentration-time curve from time 0 to infinity including all 14 doses) was calculated. Dose and time-linearity and achievement of steady-state were evaluated. Fraction of drug eliminated in urine was determined.
Within each group, subjects were equally divided at the two study sites with each site enrolling 12 subjects (zotarolimus, eight subjects; placebo four subjects). The dosing scheme within each dose group is presented below:
Subjects received, under fasting conditions, a single 60-minute daily (QD) intravenous infusion of 200, 400, or 800 μg of zotarolimus or a matching intravenous infusion of placebo for Groups I, II and III, respectively on Study Days 1 through 14. The drug was administered via a syringe pump connected to a y-site device, which also infused 125-150 mL of 5% aqueous dextrose solution (D5W) over 60 minutes. The groups were dosed sequentially with at least 7 days separating the last dose of the previous group and the first dose of the next group during which time safety data from the previous group was analyzed. Dose escalation was dependent on the safety analysis of the lower dose group.
Five (5)-mL blood samples were collected in potassium EDTA containing tubes to evaluate zotarolimus concentrations prior to dosing (0 hour), and at 0.25, 0.5, 1.0, 1 hour 5 min, 1.25, 1.5, 2, 3, 4, 8, 12, 18 and 24 hours after starting infusion on Study Days 1 and 14. Additional samples were collected at 36, 48, 72, 96, 120, 144 and 168 hours after starting infusion on Study Day 14 and before dosing on Days 10, 11, 12 and 13. Urine was collected in containers without preservatives over the following intervals: 0 to 6, 6 to 12, 12 to 18 and 18 to 24 hours after starting the infusion on Study Days 1, 14, 16, 18 and 20.
Blood and urine concentrations of zotarolimus were determined using a validated liquid/liquid extraction HPLC tandem mass spectrometric method (LC-MS/MS). The lower limit of quantification of zotarolimus was 0.20 ng/mL using 0.3 mL blood sample and 0.50 ng/mL using 0.3 mL urine sample.
Safety was evaluated based on adverse event, physical examination, vital signs, ECG, injection site and laboratory tests assessments
The pharmacokinetic parameter values of zotarolimus were estimated for individual subjects using compartmental analysis. Data from the first dose on Study Day 1, the last dose on Study Day 14 and the trough concentrations on Study Days 10, 11, 12 and 13 were simultaneously modeled for each individual subject. […]

[2] = test system: human monocytes; assay: cytokine production by LPS-stimulated human monocytes (ELISA); format: cell-based
Protocol: (§1) Experiments were performed to determine the effects of zotarolimus, sirolimus and dexamethasone on the production of TNFα, IL-6 and MCP-1 by activated human monocytes In addition to monocytes and macrophages two other key cell types are involved in the etiology of restenosis, arterial smooth muscle and endothelial cells. These cells are activated and produce cytokines in response to TNFα. […] The activation of cytokine production by human coronary artery smooth muscle and endothelial cells following TNFα treatment was determined by measuring interleukine-8 (IL-8), MCP-1 and IL-6 production. As shown by the results of the experiments described below, the ability of these compounds to inhibit the production of cytokines supports their use in combination as anti-restenotic agents since these cytokines play a role in the development of restenosis. […] After 24 hours, the supernatants were carefully collected and TNFα, IL-6 and MCP-1 levels determined by ELISA. Primary cultures of human coronary artery endothelial and smooth muscle cells were obtained from Cambrex and maintained as described by the vendor. […] After 24 hours the supernatants were removed and replaced with media containing TNFα (5 ng/ml) in the presence and absence of various concentrations of zotarolimus, dexamethasone or sirolimus. The cells were incubated for 24 hours and the supernatants carefully removed and frozen until measurement. Cytokine levels were measured in the supernatants by sandwich ELISA.

[3] = test system: human coronary artery smooth muscle cells (hCaSMC); assay: cytokine production by TNFα-treated human coronary artery smooth muscle cells (ELISA); format: cell-based; details: hCaSMC, TNFα (5 ng/ml), 24 hours
Protocol: as §1

## CO[C@H]1C[C@@H]2CC[C@@H](C)[C@@](O)(O2)C(=O)C(=O)N2CCCC[C@H]2C(=O)O[C@H]([C@H](C)C[C@@H]2CC[C@H](n3cnnn3)[C@H](OC)C2)CC(=O)[C@H](C)/C=C(\C)[C@@H](O)[C@@H](OC)C(=O)[C@H](C)C[C@H](C)/C=C/C=C/C=C/1C [zotarolimus]
[1]; 800 μg QD dose group, within a 24-hour period on Day 1 and Day 14
  fraction of dose recovered in the urine: approximately 0.1%
[1]; 200, 400, 800 μg QD IV for 14 days
  most common treatment-emergent adverse events: pain, headache, injection site reaction, dry skin, abdominal pain, diarrhea and rash
[1]; 200-800 μg QD IV for 14 days
  V1, range of means over the studied regimens: 11.3 to 13.1 L
[1]; first trough samples measured on Day 10
  steady state for QD dosing reached: ≤ 10 days
[1]; intravenous, 200 μg QD dose group, read-out: median All Day −AUC0-∞
  AUC(0-inf): 677 ng·h/mL
[1]; intravenous, 400 μg QD dose group, read-out: median All Day −AUC0-∞
  AUC(0-inf): 1440 ng·h/mL
[1]; intravenous, 800 μg QD dose group, read-out: median All Day −AUC0-∞
  AUC(0-inf): 2400 ng·h/mL
[1]; 200 μg QD IV infusion for 14 days, blood, secondary predicted parameter
  Cmax: 11.2 ± 1.1 ng/mL
[1]; 200 μg QD IV infusion for 14 days, blood, secondary predicted parameter, read-out: CL (converted)
  clearance: 70 mL/min
[1]; 200 μg QD IV infusion for 14 days, blood, secondary predicted parameter, read-out: Vss
  Vd: 92.5 ± 13 L
[1]; 200 μg QD IV infusion for 14 days, blood, harmonic mean ± pseudo-standard deviation, read-out: t½ (converted)
  half-life: 24.7 ± 4.6 h
[1]; 200 μg QD IV infusion, secondary predicted parameter
  AUC: 49 ± 6.2 ng·h/mL
[1]; 400 μg QD IV infusion for 14 days, blood, secondary predicted parameter
  Cmax: 21.4 ± 2.4 ng/mL
[1]; 400 μg QD IV infusion for 14 days, blood, secondary predicted parameter, read-out: CL (converted)
  clearance: 66.7 mL/min
[1]; 400 μg QD IV infusion for 14 days, blood, secondary predicted parameter, read-out: Vss
  Vd: 112 ± 21.1 L
[1]; 400 μg QD IV infusion for 14 days, blood, harmonic mean ± pseudo-standard deviation, read-out: t½ (converted)
  half-life: 31 ± 4.6 h
[1]; 400 μg QD IV infusion, secondary predicted parameter
  AUC: 104 ± 19 ng·h/mL
[1]; 800 μg QD IV infusion for 14 days, blood, secondary predicted parameter
  Cmax: 38.7 ± 6.3 ng/mL
[1]; 800 μg QD IV infusion for 14 days, blood, secondary predicted parameter, read-out: CL (converted)
  clearance: 76.7 mL/min
[1]; 800 μg QD IV infusion for 14 days, blood, secondary predicted parameter, read-out: Vss
  Vd: 118 ± 18.7 L
[1]; 800 μg QD IV infusion for 14 days, blood, harmonic mean ± pseudo-standard deviation, read-out: t½ (converted)
  half-life: 30 ± 4.1 h
[1]; 800 μg QD IV infusion, secondary predicted parameter
  AUC: 180 ± 17.4 ng·h/mL
[1]; 200-800 μg QD IV for 14 days, read-out: CL, range of means over the studied regimens
  clearance: 66.7 to 76.7 mL/min
[1]; 200-800 μg QD IV for 14 days, read-out: Vss, range of means over the studied regimens
  Vd: 92.5 to 118 L
[1]; 200-800 μg QD IV for 14 days, read-out: terminal elimination t1/2, range of means over the studied regimens
  half-life: 24.7 to 31 h
[1]; 200-800 μg QD IV, time 0 to infinity including all 14 doses, read-out: All Day-AUC0-∞, range over the studied regimens
  AUC(0-inf): 677 to 2400 ng·h/mL
[1]; intravenously for 14 consecutive days
  dose proportionality and time dependence of pharmacokinetics: dose proportional and time invariant
[2]; FIG. 10
  MCP-1 production by human monocytes in vitro: dose-dependently inhibit MCP-1 production
[2]; FIGS. 10 and 11
  production of TNFα and IL-6 by human monocytes: not demonstrated
[2]; Monocytes, 24 hours
  Maximal Inhibitory Activity, IL-6: − (− indicates maximal inhibitory activity less than 50% of control)
  Maximal Inhibitory Activity, MCP-1: +++ (+++ indicates maximal inhibitory activity of 75-100% of control)
  Maximal Inhibitory Activity, TNF: − (− indicates maximal inhibitory activity less than 50% of control)
[3]
  Maximal Inhibitory Activity, IL-6: − (− indicates maximal inhibitory activity less than 50% of control)
  Maximal Inhibitory Activity, Il-8: − (− indicates maximal inhibitory activity less than 50% of control)
  Maximal Inhibitory Activity, MCP-1: − (− indicates maximal inhibitory activity less than 50% of control)
